# Reference: patent US20230405143A1, “TYROSINE-BASED ANTIBODY CONJUGATES” (Synaffix B.V., priority 2020, published 2023)
# Test: stability of linker-payload under acidic sample work-up and analysis (MS / RP-HPLC)
# Type: physicochemical
# Conditions: note to FIG. 26
# Procedure: Note: *BCN-HS-PEG2-va-PABC-PBD is not stable under the acidic conditions used in sample work-up and analysis. Therefore, some peak broadening is observed, so conversion was determined by the amount of starting material left.
# Prior to RP-HPLC analysis, IgG (10 μL, 1 mg/mL in PBS pH 7.4) was added to 12.5 mM DTT, 100 mM TrisHCl pH 8.0 (40 μL) and incubated for 15 minutes at 37° C. The reaction was quenched by adding 49% acetonitrile, 49% water, 2% formic acid (50 μL). RP-HPLC analysis was performed on an Agilent 1100 series (Hewlett Packard). The sample (10 μL) was injected with 0.5 mL/min onto Bioresolve RP mAb 2.1*150 mm 2.7 μm (Waters) with a column temperature of 70° C. A linear gradient was applied in 16.8 minutes from 30 to 54% acetonitrile in 0.1% TFA and water.
# Prior to mass spectral analysis, IgG was treated with IdeS, which allows analysis of the Fc/2 fragment. For analysis of the Fc/2 fragment, a solution of 20 μg (modified) IgG was incubated for 1 hour at 37° C. with IdeS/Fabricator™ (1.25 U/μL) in PBS pH 6.6 in a total volume of 10 μL. Samples were diluted to 80 μL followed by analysis electrospray ionization time-of-flight (ESI-TOF) on a JEOL AccuTOF. Deconvoluted spectra were obtained using Magtran software.
substance,measurement,value
BCN-HS-PEG2-va-PABC-PBD,stability under the acidic conditions used in sample work-up and analysis,not stable
